What was measured:
[1] = test system: stop codons UGA N, UAG N, and UAA N; experiment: dual luciferase (p2luc) stop codon readthrough assay in HEK293 cells; assay type: cell-based, human; conditions: for concentration at which maximal levels of stop codon readthrough were observed: aminoglycoside in growth media for 24 hours; for readthrough of UAA A stop codon: UAA A construct, tissue culture (HEK293)
Source text: The p2luc dual luciferase reporter plasmid system, as described in U.S. Pat. No. 6,143,502, was used to measure the effect of aminoglycosides on stop codon readthrough in tissue culture cells. In this system, the renilla (sea pansy) luciferase and firefly luciferase reporter coding sequences are located on either side of a stop codon (FIG. 1). Stop codon and control constructs (containing a sense codon in place of the stop codon) are transfected in parallel in tissue culture cells. Expression of the upstream renilla luciferase gene provides a way to normalize for differences in transfection efficiencies, translation initiation, and mRNA levels between transfected cultures. […] M. R. Culbertson, RNA surveillance. Unforeseen consequences for gene expression, inherited generic disorders and cancer, 15 Trends Genet. 74-80 (1999). The ability of the dual reporter system to control for differences in mRNA levels between normal and nonsense-containing sequences provides a distinct advantage compared with single reporter or direct protein analysis. After normalization, the differences in downstream firefly luciferase activities between cultures transfected with the stop codon and control sense codon constructs reflect the frequency of stop codon readthrough.
(§1) The stop codons of SEQ ID NO: 1 through SEQ ID NO: 12 and SEQ ID NO: 25 were cloned between the two luciferase genes of p2luc, and control reporter plasmids (SEQ ID NO: 13-24) were produced by changing the first nucleotide of the stop codon to a C. More particularly, complimentary oligonucleotides corresponding to the sequences SEQ ID NO: 1 through SEQ ID NO: 25 were synthesized on an Applied Biosystems model 380C synthesizer (Foster City, Calif.) such that when annealed, they would have SalI- and BamHI-compatible ends. The oligonucleotides were ligated in SalI- and BamHI-digested p2luc vector according to methods well known in the art and transformed to Escherichia coli strain SU1675. DNA sequences were verified by autothermocycler sequencing, and plasmids were purified using the Qiagen Midiprep Kit (Valencia, Calif.) according to the manufacturer's specifications.
The oligonucleotides corresponding to SEQ ID NO: 1 through SEQ ID NO: 12 were identical except for nucleotides 13-16, which contained in-frame stop codons followed by a C, T, A, or G nucleotide. The oligonucleotides corresponding to SEQ ID NO: 13 through SEQ ID NO: 24 were the respective controls, which were identical to the oligonucleotides corresponding to SEQ ID NO: 1 through SEQ ID NO: 12 except the first nucleotide of the stop codon was replaced with a C nucleotide, thus changing the stop codon to a sense codon. The oligonucleotide corresponding to SEQ ID NO: 25 comprises the sequence surrounding the mdx mouse dystrophin mutation.
Translational readthrough of the stop codons of oligonucleotides corresponding to SEQ ID NO: 1 through SEQ ID NO: 12 was determined in a human embryonic kidney cell line (HEK293, e.g., ATCC CRL-1573) grown in the presence of varying amounts of G-418, gentamicin, and paromomycin, which have been particularly effective in inducing stop codon readthrough in yeast. A. Singh et al., Phenotypic suppression and misreading Saccharomyces cerevisiae, 277 Nature 146-148 (1979); E. Palmer et al., Phenotypic suppression of nonsense mutants in yeast by aminoglycoside antibiotics, 277 Nature 148-150 (1979). HEK293 cells were maintained as monolayer cultures growing in Dulbecco's Modified Eagle Medium with 1,000 mg/L of D-glucose, L-glutamine, pyridoxine hydrochloride, and 110 mg/L of sodium pyruvate supplemented with 10% fetal bovine serum and 50 units/ml penicillin/50 µg/ml streptomycin. All cells were incubated at 37° C. in an atmosphere of 5% CO2. All media, penicillin, and streptomycin were obtained from LifeTechnologies (Rockville, Md.); aminoglycosides were purchased from Sigma (St Louis, Mo.); and all sera were obtained from HyClone (Logan, Utah). […]

[2] = test system: cystic fibrosis transmembrane conductance regulator (CFTR) protein; conditions: bronchial cell line carrying a nonsense mutation in the CFTR gene; cited from earlier work
[3] = test system: overall translation; experiment: inhibition of translation monitored by reduction in renilla luciferase activity in control transfections; assay type: cell-based, human; conditions: highest concentration tested, HEK293 control transfections
Protocol: Transfections were performed using lipofectamine reagent (LifeTechnologies). HEK293 cells (0.15×10^5)were plated in 0.34-cm^2 wells and grown for 24 to 48 hours according to methods well known in the art. All cells were transfected with 0.3 μl of lipofectin and 0.075 μg of plasmid DNA for 15 hours, in serum-free media. Fresh media with serum and varying levels of aminoglycosides (Sigma) were then added, and incubation continued for 24 hours.
(§2) Cells were lysed using passive lysis buffer (Promega, Madison, Wis., and both renilla and firefly luciferase activities were determined using the dual luciferase reporter assay (Promega) on a Dynatech MLX Microtiter Plate Luminometer (Burlington, Mass.). For all reactions, light emission was measured for 2 to 12 seconds after 100μl of luminescence substrate was injected. Stop codon readthrough was calculated by comparing the ratio of firefly to renilla luciferase activity in cultures transfected with p2luc stop codon constructs and compared with ratios obtained from cultures transfected with p2luc control constructs.
A significant difference in stop codon readthrough induced by the aminoglycosides was observed between UGA, UAG, and UAA. […] The nucleotide in the fourth position immediately after the stop codon also contributed to the frequency of stop codon readthrough. This effect is particularly obvious for UGA N, where N=C>U>A≧G in order of most to least stop codon readthrough. […] Inhibition of translation was monitored by examining the reduction in renilla luciferase activity in control transfections.

[4] = test system: dystrophin; conditions: cited from earlier work
[5] = test system: mdx premature stop codon / UGA C control; experiment: dual luciferase stop codon readthrough assay in mouse myoblast C2C12 cell line; assay type: cell-based
Source text: as §1, with “DNA sequences were verified by autothermocycler sequencing, and plasmids were purified using the Qiagen Midiprep Kit (Valencia, Calif.) according to the manufacturer's specifications.” left out
as §2, with “constructs. […]” for “constructs.”

| Molecule | stop codon readthrough on a mass basis, comparison of the three aminoglycosides ([1]; HEK293 cells) | concentration at which maximal levels of stop codon readthrough were observed ([1]; HEK293 cells) | readthrough of UAA A stop codon [1] | expression of CFTR protein [2] | reduction in overall translation [3] | effect on premature stop codon in the dystrophin gene of the mdx mouse [4] | full-length dystrophin protein expressed on aminoglycoside treatment ([4]; mdx mouse) | gentamicin-induced readthrough of mdx sequence in C2C12 cells compared with UAA A construct in HEK293 cells [5] |
| --- | --- | --- | --- | --- | --- | --- | --- | --- |
| CN[C@@H]1[C@@H](O)[C@@H](O[C@@H]2[C@@H](O)[C@H](O[C@H]3O[C@H]([C@@H](C)O)[C@@H](O)[C@H](O)[C@H]3N)[C@@H](N)C[C@H]2N)OC[C@]1(C)O [G-418] | induced the most readthrough on a mass basis | 0.4 mg/mL | approximately 1% | restore the expression | ~50% | – | – | – |
| NC[C@@H]1O[C@H](O[C@H]2[C@@H](O)[C@H](O[C@@H]3[C@@H](O)[C@H](N)C[C@H](N)[C@H]3O[C@H]3O[C@H](CO)[C@@H](O)[C@H](O)[C@H]3N)O[C@@H]2CO)[C@H](N)[C@@H](O)[C@@H]1O [paromomycin] | – | 2 mg/mL | approximately 1% | – | little effect on translation | – | – | – |
| gentamicin | – | – | approximately 1% | restore the expression | ~20% | can partially reverse the effects of a premature stop codon | 10 to 20% | No increase |

— US20030049666A1, “Tissue culture assay for measuring drug induced translational recoding at premature stop codons and frameshift mutations” (University of Utah, priority 2001, published 2003)
